Data published in patent US7037663B2, “Human zona pellucida protein 3 and uses thereof” (Eastern Virginia Medical School, priority 1998, dated 2006).

Columns and labels:
human sperm [1] = assay: Acrosome reaction of live sperm by FITC-PSA, second series; type: cell-based; conditions: A23187 5 μM
Experimental: Determination of the acrosome reaction—The proportion of live acrosome-reacted spermatozoa incubated under capacitating conditions was determined with the fluorescent probe fluorescein isothiocyanate-labeled Pisum Sativum Agglutinin (FITC-PSA, Sigma) after staining with a supravital stain (Hoechst 33258, Sigma) following established techniques (12,13). At least 200 sperm per sample were evaluated in duplicate at 600× magnification using an epifluorescence microscope equipped with phase-contrast optics (Optiphot; Nikon, Melville, N.Y.). Slides were coded and read in a blind fashion.
A calcium ionophore agent (A23187, Sigma) tested at 5 μM and human acid solubilized zona pellucida tested at a final concentration of 4 zona/10 μl were used as positive controls (20). In further experiments, the acrosomal status was assessed by transmission electron microscopy. Spermatozoa were fixed by mixing sperm suspensions with equal volumes of 2% (v/v) glutaraldehyde (in 3 mM CaCl2 and 0.1 M sodium cacodylate); thereafter, samples were dehydrated twice and prepared for thin sectioning using previously published procedures. Ultrastructural examination was performed with a transmission electron microscope (Jeol JEM-1200 EX II, Peabody, Mass.).
Experiment 2: Characterization of the acrosome reaction inducing activity of the rhZP3 in dose- and sperm capacitation-dependency studies—Motile sperm fractions from 29 ejaculates of 11 different donors were incubated under capacitating conditions for 3 hours and assayed for acrosome reaction using FITC-PSA. Following swim-up, sperm aliquots were pre-incubated for 30 minutes with rhZP3 (30 ng/ml), A23187 (positive control), culture medium from non-transfected PA-cells (NT) or sperm culture medium (negative controls). This was the initially selected dose of rhZP3 to be tested as it had proven to effect significant inhibition of sperm-zona binding in the HZA.
The dose-dependent effect of rhZP3 on acrosome reaction was examined in the swim-up fractions obtained from four different donors. The fractions were capacitated for 3 hours and exposed for 30 min to rhZP3 at final concentrations of 0, 7.5, 15, 30, 60, 120, 240, 480, 960 and 1920 ng/ml. The capacitation-dependency of the acrosome reaction-inducing activity of rhZP3 was assessed in the swim-up fractions of four ejaculates from four different donors. Capacitation times included: 0 (immediately post-swim-up), 1, 4, 8, 12 and 24 hours. After the capacitation period, rhZP3 was added to the sperm suspension at a final concentration of 30 ng/ml.
In another set of experiments, three different ejaculates were used to compare the effects of the rhZP3 (tested at 500 ng/ml) with those of solubilized zonae pellucidae and the calcium ionophore. Further, the induction of the acrosome reaction was assessed in parallel with FITC-PSA and transmission electron microscopy. The goal of these studies was to compare the morphological features of the acrosome reaction between agonists and also between the agonist-induced and basal exocytosis rates.

human sperm [2] = assay: Acrosome reaction of capacitated sperm by FITC/PSA with Hoechst 33258 viability stain, first series; type: cell-based; conditions: NT 30 ng/ml, calcium ionophore 5 μM, rhZP3 30 ng/ml, solubilized zona 0.5 ZP/μl, mean (± SEM)
Experimental: The purified rhZP3 was also applied to test its activity to induce human sperm acrosome reaction. The motile sperm obtained by swim-up procedure were allowed to capacitate in HTF/0.5% HSA for four hours at 37° C. in 5% CO2 in huminified air. The motile sperm concentration used to detect acrosome reaction was set at 2 million/ml. A series of 100 ul of capacitated sperm aliquots with different inducers were prepared in Eppendorf vials and cultured in the incubator in 95% air, 5% CO2, at 37° C. for 30 minutes. The test was conducted as follows: positive control: calcium ionophore A23187 (Sigma) at 5 μM; negative controls: 1) sperm culture medium alone, and 2) protein isolated from the culture media of non-transfected PA-1 cells (NT); test: rhZP3. Triple slides were made for each assay. Hoechst 33258 stain was used for determination of sperm viability. Fluorescein isothiocyanate conjugated Pisum sativum agglutinin (FITC/PSA) (Sigma) staining technique was employed to evaluate the acrosome reaction (Cross et al, 1986). Blind reading was required for evaluation and at least 100˜200 cells from 5 random fields were evaluated per spot on the slide. […] The results were expressed as percentage of acrosome-reacted spermatozoa in the total population counted (Cross, 1986).
In some experiments, Solubilized zona pellucida were used as control to test its function to induce sperm acrosome reaction. The solubilized zona pellucida were prepared according to Franken et al (1996). Ooplasma was removed using a small glass micropipette. A vigorous pipetting action would break their zona causing ooplasma to be spilled into surrounding medium. The chosen amount of zonae was transferred into an eppendorf tube and was centrifuged for 15 minutes at 300×g. Using a steromicroscope, the media were removed with pipette, making sure not to disturb zona. The final result was to remove maximum medium. A chosen volume (depending on the zona concentration needed) of 10 mM HCl was added. Under the microscopic vision, zona/HCl was pipetted up and down until all zona were dissolved. Then 10 mM NaOH of equal volume as the HCl was added and mixed well to obtain the stock zona solution.

sperm = assay: Sperm motion parameters by computer analyzer; conditions: data not shown
Gi proteins = assay: Pertussis toxin pre-incubation before rhZP3-induced acrosome reaction; type: cell-based, human
Experimental: Experiment 3: Acrosome reaction-inducing activity of rhZP3: effect on Gi proteins—Motile sperm fractions were obtained from the ejaculates of three donors and incubated under capacitating conditions. In each experiment, the test aliquot was pre-incubated with pertussis toxin (100 ng/ml final concentration) for 4 hours followed by incubation with rhZP3 (500 ng/ml). A control aliquot was incubated in culture medium alone for 4 hours and then treated with rhZP3 at the same dose. After 30 min exposure to rhZP3 or control conditions, sperm were assayed for acrosome reaction using FITC-PSA.

CNc1ccc2oc(C[C@H]3O[C@@]4(CC[C@H]3C)O[C@H]([C@H](C)C(=O)c3ccc[nH]3)[C@H](C)C[C@H]4C)nc2c1C(=O)O [Calcium ionophore, A23187, reference compound]
live, acrosome reacted sperm (human sperm [1]; rhZP3 30 ng/ml, 3 h capacitation, 30 min exposure): 19.4±4.1% | induction of the acrosome reaction (human sperm [1]; rhZP3 500 ng/ml, solubilized zona 4 zona/10 μl): 34.7±5.2% | % acrosome reacted-sperm (human sperm [2]; 4 h capacitation, 30 min): 22.5% | % sperm viability (human sperm [2]): 96.5 (2.0) % | sperm motion parameters, treatment versus control (sperm): not significantly different

pertussis toxin
effect on basal rate of spontaneous acrosomal exocytosis (Gi proteins; pertussis toxin 100 ng/ml): did not modify the basal rate of spontaneous acrosomal exocytosis | effect on induction of the acrosome reaction by rhZP3 (Gi proteins; pertussis toxin 100 ng/ml 4 h, then rhZP3 500 ng/ml 30 min): inhibited the induction of the acrosome reaction by rhZP3 | sperm motion parameters, treatment versus control (sperm): not significantly different
